Experimental data: US11566007B2, “Ras inhibitors” (Revolution Medicines, Inc., priority 2019, dated 2023)
pIC50: −log10 of the molar value.

Columns and labels:
KRAS G12V = KRAS G12V (Homo sapiens (Human), UniProt P01116+P62937, G12V); assay: Ras-Raf (BRAF RBD) disruption / FRET / MOA assay, KRAS G12V; format: biochemical; conditions: read-out: IC50* KRAS G12V FRET data
Procedure, shortened: (§1)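 TR-FRET read-out: a drop in ratio relative to DMSO wells marks disruption of the Ras:RAF complex, reported as IC50. Compounds (3-fold series, 10 points, top 30 μM final) incubated 3 h at 25° C before Eu-anti-His 10 nM and APC-anti-GST 50 nM, 1.5 h more.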

NRAS Q61R = NRAS Q61R (Homo sapiens (Human), UniProt P01111+P62937, Q61R); assay: Ras-Raf (BRAF RBD) disruption / FRET / MOA assay, NRAS Q61R; format: biochemical; conditions: NRAS Q61R; Ras-Raf disruption/FRET/MOA assay; read-out: IC50* NRAS Q61R FRET data
Chain of NRAS Q61R (P01111 whole entry Q61R): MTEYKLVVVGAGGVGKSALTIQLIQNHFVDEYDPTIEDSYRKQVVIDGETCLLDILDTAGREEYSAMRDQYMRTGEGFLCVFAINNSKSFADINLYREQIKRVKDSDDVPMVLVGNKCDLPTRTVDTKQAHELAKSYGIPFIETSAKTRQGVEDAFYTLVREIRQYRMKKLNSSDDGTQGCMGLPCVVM
Chain of NRAS Q61R (P62937 whole entry): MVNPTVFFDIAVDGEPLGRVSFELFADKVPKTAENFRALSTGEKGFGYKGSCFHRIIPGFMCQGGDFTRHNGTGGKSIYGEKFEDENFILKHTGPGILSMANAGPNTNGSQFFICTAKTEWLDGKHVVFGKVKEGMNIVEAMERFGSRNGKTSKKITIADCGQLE
Procedure, shortened: (§2)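 Compounds were tested as a 10-point 3-fold dilution series from 30 μM final for their ability to drive ternary complex formation between nucleotide-loaded Ras and cyclophilin A, displacing the BRAF RBD. After 3 h at 25° C., anti-His Eu-W1024 (10 nM) and anti-GST allophycocyanin (50 nM) were added for 1.5 h. A TR-FRET ratio decrease versus DMSO gave IC50.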

K-Ras G13C = K-Ras G13C (Homo sapiens (Human), UniProt P01116+P62937, G13C); assay: Ras-Raf (BRAF RBD) disruption / FRET / MOA assay, KRAS G13C; format: biochemical; conditions: KRAS G13C; Ras-Raf disruption/FRET/MOA assay; read-out: IC50* KRAS G13C FRET data
Chain of K-Ras G13C (P01116-2 other isoform, or with tags, fused parts or gaps G13C): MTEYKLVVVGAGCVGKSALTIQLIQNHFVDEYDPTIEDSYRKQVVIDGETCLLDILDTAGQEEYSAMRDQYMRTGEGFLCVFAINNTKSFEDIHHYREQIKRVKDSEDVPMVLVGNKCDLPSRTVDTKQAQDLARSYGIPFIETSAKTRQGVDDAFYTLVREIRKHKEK
Chain of K-Ras G13C (P62937 whole entry): as the sequence (P62937 whole entry) above
Procedure, shortened: as §1

KRAS G13D = KRAS G13D (Homo sapiens (Human), UniProt P01116+P62937, G13D); assay: Ras-Raf (BRAF RBD) disruption / FRET / MOA assay, KRAS G13D; format: biochemical; conditions: read-out: IC50* KRAS G13D FRET data
Chain of KRAS G13D (P01116-2 other isoform, or with tags, fused parts or gaps G13D): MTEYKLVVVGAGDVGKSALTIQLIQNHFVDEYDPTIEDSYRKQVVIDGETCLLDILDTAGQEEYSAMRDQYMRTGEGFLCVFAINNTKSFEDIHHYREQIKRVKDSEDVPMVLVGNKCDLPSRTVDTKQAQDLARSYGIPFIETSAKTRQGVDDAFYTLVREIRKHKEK
Chain of KRAS G13D (P62937 whole entry): as the sequence (P62937 whole entry) above
Procedure, shortened: as §1

NCI-H358 (K-Ras G12C) = assay: CellTiter-Glo cell viability assay, NCI-H358; format: cell-based, human; conditions: Homo sapiens, NCI-H358, 120 h, NCI-H358, 5-day treatment; class symbols; read-out: Additional H358 Cell Viability assay data (K-Ras G12C, IC50)
Procedure, shortened: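 Steps: compound dispensed into wells holding cells; incubation to day 5; ~30 min room-temperature equilibration; luminescence read; sample signal divided by mean DMSO signal, times 100; four-parameter logistic curve fit.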

KRAS WT = KRAS WT (Homo sapiens (Human), UniProt P01116+P62937); assay: Ras-Raf (BRAF RBD) disruption / FRET / MOA assay, KRAS WT; format: biochemical; conditions: read-out: IC50* KRAS WT FRET data
Chain of KRAS WT (P01116-2 other isoform, or with tags, fused parts or gaps): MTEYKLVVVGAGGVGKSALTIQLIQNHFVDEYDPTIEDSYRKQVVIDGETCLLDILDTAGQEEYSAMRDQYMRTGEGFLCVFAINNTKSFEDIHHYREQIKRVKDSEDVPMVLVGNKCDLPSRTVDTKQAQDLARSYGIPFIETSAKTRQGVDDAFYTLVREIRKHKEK
Chain of KRAS WT (P62937 whole entry): as the sequence (P62937 whole entry) above
Procedure, shortened: as §1

KRAS G12D = KRAS G12D (Homo sapiens (Human), UniProt P01116+P62937, G12D); assay: Ras-Raf (BRAF RBD) disruption / FRET / MOA assay, KRAS G12D; format: biochemical; conditions: Ras-Raf disruption/FRET/MOA assay; class symbols; read-out: KRAS G12D FRET data IC50
Chain of KRAS G12D (P01116-2 other isoform, or with tags, fused parts or gaps G12D): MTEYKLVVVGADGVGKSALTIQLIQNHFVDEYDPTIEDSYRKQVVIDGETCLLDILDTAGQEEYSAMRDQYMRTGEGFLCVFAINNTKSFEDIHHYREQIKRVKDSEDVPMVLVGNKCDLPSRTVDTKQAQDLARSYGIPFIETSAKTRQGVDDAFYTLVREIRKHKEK
Chain of KRAS G12D (P62937 whole entry): as the sequence (P62937 whole entry) above
Procedure, shortened: as §1

NRAS Q61K = NRAS Q61K (Homo sapiens (Human), UniProt P01111+P62937, Q61K); assay: Ras-Raf (BRAF RBD) disruption / FRET / MOA assay, NRAS Q61K; format: biochemical; conditions: NRAS Q61K; Ras-Raf disruption/FRET/MOA assay; read-out: IC50* NRAS Q61K FRET data
Chain of NRAS Q61K (P01111 whole entry Q61K): as the sequence (P01111 whole entry Q61R) above, with R61K counted along it
Chain of NRAS Q61K (P62937 whole entry): as the sequence (P62937 whole entry) above
Procedure, shortened: as §2

NRAS WT = NRAS WT (Homo sapiens (Human), UniProt P01111+P62937); assay: Ras-Raf (BRAF RBD) disruption / FRET / MOA assay, NRAS WT; format: biochemical; conditions: read-out: IC50* NRAS WT FRET data
Chain of NRAS WT (P01111 whole entry): as the sequence (P01111 whole entry Q61R) above, with R61Q counted along it
Chain of NRAS WT (P62937 whole entry): as the sequence (P62937 whole entry) above
Procedure, shortened: as §2

KRAS G12S = KRAS G12S (Homo sapiens (Human), UniProt P01116+P62937, G12S); assay: Ras-Raf (BRAF RBD) disruption / FRET / MOA assay, KRAS G12S; format: biochemical; conditions: Ras-Raf disruption/FRET/MOA assay; class symbols; read-out: KRAS G12S FRET data IC50
Chain of KRAS G12S (P01116-2 other isoform, or with tags, fused parts or gaps G12S): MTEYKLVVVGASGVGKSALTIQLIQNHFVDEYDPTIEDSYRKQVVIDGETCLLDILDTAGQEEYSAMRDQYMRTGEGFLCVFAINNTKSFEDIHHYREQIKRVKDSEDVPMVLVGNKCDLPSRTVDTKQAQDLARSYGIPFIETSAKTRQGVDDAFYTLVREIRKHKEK
Chain of KRAS G12S (P62937 whole entry): as the sequence (P62937 whole entry) above
Procedure, shortened: as §1

Chain of KRAS G12V (P01116-2 other isoform, or with tags, fused parts or gaps G12V): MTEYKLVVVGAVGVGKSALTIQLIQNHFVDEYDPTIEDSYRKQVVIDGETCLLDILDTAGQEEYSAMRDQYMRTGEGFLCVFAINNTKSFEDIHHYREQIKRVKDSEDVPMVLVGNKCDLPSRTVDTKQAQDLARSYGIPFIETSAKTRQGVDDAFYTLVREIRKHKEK
Chain of KRAS G12V (P62937 whole entry): as the sequence (P62937 whole entry) above

SMILES	pIC50 (KRAS G12V)	pIC50 (NRAS Q61R)	pIC50 (K-Ras G13C)	pIC50 (KRAS G13D)	pIC50 (NCI-H358 (K-Ras G12C))	pIC50 (KRAS WT)	pIC50 (KRAS G12D)	pIC50 (NRAS Q61K)	pIC50 (NRAS WT)	pIC50 (KRAS G12S)
C=CC(=O)N1CC[C@H](C(=O)N(C)[C@H](C(=O)N[C@H]2Cc3cccc(c3)-c3ccc4c(c3)c(c(-c3cccnc3[C@H](C)OC)n4CC)CC(C)(C)COC(=O)[C@@H]3CCCN(N3)C2=O)C(C)C)[C@H]1C (atropisomer, axis not shown) [Example A373]	6.00 to 7.00	5.00 to 6.00	6.00 to 7.00	5.00 to 6.00	7.00 to 8.00	5.00 to 6.00	5.00 to 6.00	5.00 to 6.00	5.00 to 6.00	5.00 to 6.00
CO[C@@H](C)c1ncccc1-c1c2c3cc(ccc3n1CC(F)(F)F)-c1cc(cc(C(F)F)c1)C[C@H](NC(=O)[C@@H](COC1CN(C(=O)C#CC(C)(C)N(C)C)C1)C(C)C)C(=O)N1CCC[C@H](N1)C(=O)OCC(C)(C)C2 (atropisomer, axis not shown) [Example A374]	< 5.00	< 5.00	< 5.00	< 5.00	7.00 to 8.00	< 5.00	< 5.00	< 5.00	< 5.00	< 5.00
CCn1c(-c2cccnc2[C@H](C)OC)c2c3cc(ccc31)-c1csc(n1)C[C@H](NC(=O)CCO[C@H]1CCN(C(=O)C#CC(C)(C)N3CCC3)C1)C(=O)N1CCC[C@H](N1)C(=O)OCC(C)(C)C2 (atropisomer, axis not shown) [Example A381]	5.00 to 6.00	5.00 to 6.00	5.00 to 6.00	5.00 to 6.00	7.00 to 8.00	5.00 to 6.00	5.00 to 6.00	5.00 to 6.00	5.00 to 6.00	5.00 to 6.00
C=CC(=O)N(C)C[C@@H]1CCN1C(=O)N(C)[C@H](C(=O)N[C@H]1Cc2nc(cs2)-c2ccc3c(c2)c(c(-c2cccnc2[C@H](C)OC)n3CC)CC(C)(C)COC(=O)[C@@H]2CCCN(N2)C1=O)C(C)C (atropisomer, axis not shown) [Example A390]	5.00 to 6.00	5.00 to 6.00	6.00 to 7.00	5.00 to 6.00	6.00 to 7.00	5.00 to 6.00	5.00 to 6.00	6.00 to 7.00	5.00 to 6.00	5.00 to 6.00
C=CC(=O)N1CC[C@H](C(=O)N(C)[C@H](C(=O)N[C@H]2Cc3cccc(c3)-c3ccc4c(c3)c(c(-c3cc(C5CN(C)C5)cnc3[C@H](C)OC)n4CC)CC(C)(C)COC(=O)[C@@H]3CCCN(N3)C2=O)C(C)C)C1 (atropisomer, axis not shown) [Example A392]	5.00 to 6.00	5.00 to 6.00	5.00 to 6.00	< 5.00	7.00 to 8.00	5.00 to 6.00	< 5.00	< 5.00	5.00 to 6.00	5.00 to 6.00
C=CC(=O)N1CC[C@H](C(=O)N(C)[C@H](C(=O)N[C@H]2Cc3cccc(n3)-c3ccc4c(c3)c(c(-c3cccnc3[C@H](C)OC)n4CC)CC(C)(C)COC(=O)[C@@H]3CCCN(N3)C2=O)C(C)C)C1 (atropisomer, axis not shown) [Example A442]	< 5.00	5.00 to 6.00	5.00 to 6.00	< 5.00	7.00 to 8.00	< 5.00	< 5.00	5.00 to 6.00	< 5.00	5.00 to 6.00
C=CC(=O)N1CC[C@H](C(=O)N(C)[C@H](C(=O)N[C@H]2Cc3cccc(c3)-c3ccc4c(c3)c(c(-c3cccnc3[C@H](C)OC)n4CC3COC3)CC(C)(C)COC(=O)[C@@H]3CCCN(N3)C2=O)C(C)C)C1 (atropisomer, axis not shown) [Example A481]	5.00 to 6.00	5.00 to 6.00	5.00 to 6.00	< 5.00	7.00 to 8.00	5.00 to 6.00	< 5.00	5.00 to 6.00	5.00 to 6.00	5.00 to 6.00
C=CC(=O)N1CC[C@H](C(=O)N2CCCCC[C@H]2C(=O)N[C@H]2Cc3nc(cs3)-c3ccc4c(c3)c(c(-c3cccnc3[C@H](C)OC)n4CC)CC(C)(C)COC(=O)[C@@H]3CCCN(N3)C2=O)C1 (atropisomer, axis not shown) [Example A495]	5.00 to 6.00	5.00 to 6.00	5.00 to 6.00	< 5.00	7.00 to 8.00	5.00 to 6.00	< 5.00	5.00 to 6.00	5.00 to 6.00	5.00 to 6.00
C=CC(=O)N(C)CCN1CCN(C(=O)N(C)[C@H](C(=O)N[C@H]2Cc3cccc(c3)-c3ccc4c(c3)c(c(-c3cccnc3[C@H](C)OC)n4CC)CC(C)(C)COC(=O)[C@@H]3CCCN(N3)C2=O)C(C)C)CC1 (atropisomer, axis not shown) [Example A539]	6.00 to 7.00	6.00 to 7.00	7.00 to 8.00	5.00 to 6.00	6.00 to 7.00	6.00 to 7.00	5.00 to 6.00	6.00 to 7.00	6.00 to 7.00	6.00 to 7.00
C=CC(=O)N1CCOC2(CCN(C(=O)N(C)[C@H](C(=O)N[C@H]3Cc4cc(C(F)F)cc(n4)-c4ccc5c(c4)c(c(-c4cccnc4[C@H](C)OC)n5CC(F)(F)F)CC(C)(C)COC(=O)[C@@H]4CCCN(N4)C3=O)C(C)C)CC2)C1 (atropisomer, axis not shown) [Example A541]	5.00 to 6.00	6.00 to 7.00	7.00 to 8.00	5.00 to 6.00	7.00 to 8.00	6.00 to 7.00	5.00 to 6.00	6.00 to 7.00	6.00 to 7.00	6.00 to 7.00
C=CC(=O)N1CCC[C@]12CCN(C(=O)N(C)[C@H](C(=O)N[C@H]1Cc3nc(cs3)-c3ccc4c(c3)c(c(-c3cccnc3[C@H](C)OC)n4CC)CC(C)(C)COC(=O)[C@@H]3CCCN(N3)C1=O)C(C)C)C2 (atropisomer, axis not shown) [Example A548]	6.00 to 7.00	6.00 to 7.00	5.00 to 6.00	5.00 to 6.00	6.00 to 7.00	6.00 to 7.00	5.00 to 6.00	6.00 to 7.00	6.00 to 7.00	6.00 to 7.00
